In patent US10844044B2 (Vanderbilt University, priority 2018, dated 2020) one finds GI50 and Ki data, which are given here for 23 compounds.

The subject of test [1] is MV4:11 human cancer cell lines. Nature of the test: Anti-proliferative activity, CellTiter-Glo viability assay, 7 day protocol. It counts as cell-based. Particulars: Homo sapiens, MV4-11, 168 h, MV4:11 cells, 7 day incubation, read-out: GI50 on cellular proliferation of MV4:11 human cancer cell lines. The method, boiled down:
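Luminescent CellTiter-Glo readout after 7-day compound exposure of MV4:11 cells plated at 3600 cells/ml (final DMSO 0.1%). GI50 derived from three biological × three technical replicates, reported as mean ± S.E.M.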
Background: Cellular ATP, detected with luciferase, serves as a proxy for viable cell number.

The next test concerns the target WDR5 (Homo sapiens (Human), UniProt P61964). The experiment in a line: TR-FRET binding assay (displacement of 10mer-Thr-FAM probe from WDR5).
[2] abbreviates: read-out: Ki for Inhibition of WDR5 by TR-FRET assay, TR-FRET, 10mer-Thr-FAM probe, WDR5-His tag 2 nM, pH 7.0.
[3] abbreviates: read-out: Ki for Inhibition of WDR5 by TR-FRET assay.

Read-outs that look alike come from different tables or passages of the source.

Consider `COc1cc([C@@H](NC(=O)c2cc(CN3CCOC3=N)cc(-c3cccnc3C(F)(F)F)c2)C2CC2)ccc1F` [Example 305, (S)—N-(Cyclopropyl(4-fluoro-3-methoxyphenyl)methyl)-3-((2-iminooxazolidin-3-yl)methyl)-5-(2-(trifluoromethyl)pyridin-3-yl)benzamide], for which the GI50 in test [1] is below 100 nM. In addition, the Ki – broadly, a measure of affinity in units of concentration, obtained from inhibition or displacement – at WDR5 (setting [2]) was below 0.1 nM.
As to `COc1cc([C@@H](NC(=O)c2cc(Cn3ccoc3=N)cc(-c3cn(C)nc3C(F)(F)F)c2)C2CC2)ncc1F` [Example 306, (S)—N-(Cyclopropyl(5-fluoro-4-methoxypyridin-2-yl)methyl)-3-((2-iminooxazol-3(2H)-yl)methyl)-5-(1-methyl-3-(trifluoromethyl)-1H-pyrazol-4-yl)benzamide], the GI50 in test [1] turned out to be 410 nM. For the same compound, the Ki at WDR5 was below 0.1 nM.
For the compound `COc1cc(CNC(=O)c2cc(CN3CCSC3=N)cc(-c3ccc(F)cc3C)c2)cc(OC)c1` [Example 308, N-(3,5-Dimethoxybenzyl)-4′-fluoro-5-((2-iminothiazolidin-3-yl)methyl)-2′-methyl-[1,1′-biphenyl]-3-carboxamide], in test [1], the GI50 was determined as 630 nM. Besides, at WDR5 (setting [3]), the Ki stood at 0.45 nM.
On the same counts, the results for `N=C1SCCN1Cc1cc(C(=O)N[C@H](c2ccc(Cl)c(Cl)c2)C2CC2)cc(-c2ccc(F)cc2OC(F)F)c1` [Example 309, (S)—N-(Cyclopropyl(3,4-dichlorophenyl)methyl)-2′-(difluoromethoxy)-4′-fluoro-5-((2-iminothiazolidin-3-yl)methyl)-[1,1′-biphenyl]-3-carboxamide] are 960 nM and 0.77 nM.
For the compound `Cn1cc(-c2cc(CN3CCSC3=N)cc(C(=O)N[C@H](c3ccc(Cl)c(Cl)c3)C3CC3)c2)c(C(F)(F)F)n1` [Example 310, (S)—N-(Cyclopropyl(3,4-dichlorophenyl)methyl)-3-((2-iminothiazolidin-3-yl)methyl)-5-(1-methyl-3-(trifluoromethyl)-1H-pyrazol-4-yl)benzamide], in test [1], the GI50 was 170 nM. Besides, the inhibition constant (Ki) at WDR5 (setting [3]) was below 0.1 nM.
For `CCn1cc(-c2cc(CN3CCSC3=N)cc(C(=O)N[C@H](c3ccc(F)c(C)c3)C3CC3)c2)c(C(F)(F)F)n1` [Example 312, (S)—N-(Cyclopropyl (4-fluoro-3-methylphenyl)methyl)-3-(1-ethyl-3-(trifluoromethyl)-1H-pyrazol-4-yl)-5-((2-iminothiazolidin-3-yl)methyl)benzamide], the GI50 in test [1] is below 100 nM. At WDR5 (setting [2]), the Ki is below 0.1 nM.
On the same counts, the results for `CCn1cc(-c2cc(Cn3ccsc3=N)cc(C(=O)N[C@H](c3ccc(F)c(C)c3)C3CC3)c2)c(C(F)(F)F)n1` [Example 320, (S)—N-(Cyclopropyl(4-fluoro-3-methylphenyl)methyl)-3-(1-ethyl-3-(trifluoromethyl)-1H-pyrazol-4-yl)-5-((2-iminothiazol-3(2H)-yl)methyl)benzamide] are below 100 nM and below 0.1 nM.
`Cc1cc([C@@H](NC(=O)c2cc(Cn3ccsc3=N)cc(-c3cn(C)nc3C(F)(F)F)c2)C2CC2)ccc1F` [Example 321, (S)—N-(Cyclopropyl(4-fluoro-3-methylphenyl)methyl)-3-((2-iminothiazol-3(2H)-yl)methyl)-5-(1-methyl-3-(trifluoromethyl)-1H-pyrazol-4-yl)benzamide]: the GI50 in test [1] was below 100 nM. The Ki at WDR5 (setting [2]) is below 0.1 nM.
`Cc1cc([C@@H](NC(=O)c2cc(Cn3ccsc3=N)cc(-c3cn(C(C)C)nc3C(F)(F)F)c2)C2CC2)ccc1F` [Example 322, (S)—N-(Cyclopropyl(4-fluoro-3-methylphenyl)methyl)-3-((2-iminothiazol-3(2H)-yl)methyl)-5-(1-isopropyl-3-(trifluoromethyl)-1H-pyrazol-4-yl)benzamide]: the GI50 in test [1] is 150 nM. The Ki at WDR5 (setting [3]) is below 0.1 nM.
For the compound `CCn1cc(-c2cc(Cn3ccsc3=N)cc(C(=O)N[C@H](c3ccc(Cl)c(F)c3)C3CC3)c2)c(C(F)(F)F)n1` [Example 324, (S)—N-((4-Chloro-3-fluorphenyl)(cyclopropyl)methyl)-3-(1-ethyl-3-(trifluoromethyl)-1H-pyrazol-4-yl)-5-((2-iminothiazol-3(2H)-yl)methyl)benzamide], the GI50 in test [1] was below 100 nM. Further, the Ki on WDR5 (setting [3]) was below 0.1 nM.
On to `Cc1cc([C@@H](NC(=O)c2cc(Cn3ccsc3=N)cc(-c3cn(C)nc3C(F)(F)F)c2)C2CC2)ncc1F` [Example 325, (S)—N-(Cyclopropyl(5-fluoro-4-methylpyridin-2-yl)methyl)-3-((2-iminothiazol-3(2H)-yl)methyl)-5-(1-methyl-3-(trifluoromethyl)-1H-pyrazol-4-yl)benzamide], for which the GI50 in test [1] is below 100 nM. For the same compound, at WDR5 (setting [2]), the Ki was below 0.1 nM.
As for `COc1cc([C@@H](NC(=O)c2cc(Cn3ccsc3=N)cc(-c3cn(C)nc3C(F)(F)F)c2)C2CC2)ccc1F` [Example 327, (S)—N-(Cyclopropyl(4-fluoro-3-methoxyphenyl)methyl)-3-((2-iminothiazol-3(2H)-yl)methyl)-5-(1-methyl-3-(trifluoromethyl)-1H-pyrazol-4-yl)benzamide], the GI50 in test [1] was below 100 nM. Besides, the inhibition constant (Ki) on WDR5 (setting [2]) is below 0.1 nM.
On the same counts, the results for `CCn1cc(-c2cc(Cn3ccsc3=N)cc(C(=O)N[C@H](c3ccc(F)c(OC)c3)C3CC3)c2)c(C(F)(F)F)n1` [Example 328, (S)—N-(Cyclopropyl(4-fluoro-3-methoxyphenyl)methyl)-3-(1-ethyl-3-(trifluoromethyl)-1H-pyrazol-4-yl)-5-((2-iminothiazol-3(2H)-yl)methyl)benzamide] are below 100 nM and below 0.1 nM.
On the same counts, the results for `Cc1cc([C@@H](NC(=O)c2cc(CN3CCCC3=N)cc(-c3ccc(F)cc3C#N)c2)C2CC2)ccc1F` [Example 333, (S)-2′-Cyano-N-(cyclopropyl(4-fluoro-3-methylphenyl)methyl)-4′-fluoro-5-((2-iminopyrrolidin-1-yl)methyl)-[1,1′-biphenyl]-3-carboxamide] are 520 nM and 0.39 nM.
On the same counts, the results for `Cc1cc([C@@H](NC(=O)c2cc(CN3CCCC3=N)cc(-c3cccnc3C(F)(F)F)c2)C2CC2)ccc1F` [Example 334, (S)—N-(Cyclopropyl(4-fluoro-3-methylphenyl)methyl)-3-((2-iminopyrrolidin-1-yl)methyl)-5-(2-(trifluoromethyl)pyridin-3-yl)benzamide] are below 100 nM and below 0.1 nM.
Regarding `Cc1cc([C@@H](NC(=O)c2cc(CN3CCCC3=N)cc(-c3ccc(F)cc3C(F)(F)F)c2)C2CC2)ccc1F` [Example 335, (S)—N-(Cyclopropyl(4-fluoro-3-methylphenyl)methyl)-4′-fluoro-5-((2-iminopyrrolidin-1-yl)methyl)-2′-(trifluoromethyl)-[1,1′-biphenyl]-3-carboxamide], in test [1], the GI50 is below 100 nM. Further, the Ki on WDR5 (setting [2]) is below 0.1 nM.
On the same counts, the results for `Cc1cc([C@@H](NC(=O)c2cc(CN3CCCC3=N)cc(-c3cn(C(C)C)nc3C(F)(F)F)c2)C2CC2)ccc1F` [Example 336, (S)—N-(Cyclopropyl(4-fluoro-3-methylphenyl)methyl)-3-((2-iminopyrrolidin-1 yl)methyl)-5-(1-isopropyl-3-(trifluoromethyl)-1H-pyrazol-4-yl)benzamide] are below 100 nM and below 0.1 nM.
On the same counts, the results for `Cc1cc([C@@H](NC(=O)c2cc(CN3CCCC3=N)cc(-c3cn(C)nc3C(F)(F)F)c2)C2CC2)ccc1F` [Example 337, (S)—N-(Cyclopropyl(4-fluoro-3-methylphenyl)methyl)-3-((2-iminopyrrolidin-1-yl)methyl)-5-(1-methyl-3-(trifluoromethyl)-1H-pyrazol-4-yl)benzamide] are below 100 nM and below 0.1 nM.
On the same counts, the results for `CCn1cc(-c2cc(CN3CCCC3=N)cc(C(=O)N[C@H](c3ccc(F)c(Cl)c3)C3CC3)c2)c(C(F)(F)F)n1` [Example 338, (S)—N-((3-Chloro-4-fluorophenyl)(cyclopropyl)methyl)-3-(1-ethyl-3-(trifluoromethyl)-1H-pyrazol-4-yl)-5-((2-iminopyrrolidin-1-yl)methyl)benzamide] are below 100 nM and below 0.1 nM.
With `COc1cc([C@@H](NC(=O)c2cc(CN3CCCC3=N)cc(-c3cn(C)nc3C(F)(F)F)c2)C2CC2)ccc1F` [Example 339, (S)—N-(Cyclopropyl(4-fluoro-3-methoxyphenyl)methyl)-3-((2-iminopyrrolidin-1-yl)methyl)-5-(1-methyl-3-(trifluoromethyl)-1H-pyrazol-4-yl)benzamide], in test [1], the GI50 is 100 nM. Moreover, the Ki at WDR5 (setting [3]) was below 0.1 nM.
For `N=C1CCCN1Cc1cc(C(=O)N[C@H](c2ccc(F)c(Cl)c2)C2CC2)cc(-c2cccnc2C(F)(F)F)c1` [Example 340, (S)—N-((3-Chloro-4-fluorophenyl)(cyclopropyl)methyl)-3-((2-iminopyrrolidin-1-yl)methyl)-5-(2-(trifluoromethyl)pyridin-3-yl)benzamide], the GI50 in test [1] is below 100 nM. The Ki at WDR5 (setting [2]) is below 0.1 nM.
On the same counts, the results for `Cn1cc(-c2cc(CN3CCCC3=N)cc(C(=O)N[C@H](c3ccc(F)c(F)c3)C3CC3)c2)c(C(F)(F)F)n1` [Example 341, (S)—N-(Cyclopropyl(3,4-difluorophenyl)methyl)-3-((2-iminopyrrolidin-1-yl)methyl)-5-(1-methyl-3-(trifluoromethyl)-1H-pyrazol-4-yl)benzamide] are 100 nM and 0.35 nM.
With `Cc1cc([C@@H](NC(=O)c2cc(Cn3ccccc3=N)cc(-c3cccnc3C(F)(F)F)c2)C2CC2)ccc1F` [Example 342, (S)—N-(Cyclopropyl(4-fluoro-3-methylphenyl)methyl)-3-((2-iminopyridin-1(2H)-yl)methyl)-5-(2-(trifluoromethyl)pyridin-3-yl)benzamide], in test [1], the GI50 was below 100 nM. Also, on WDR5 (setting [2]), the Ki was below 0.1 nM.
